Experiment: DPPH radical scavenging antioxidant test
Assay type: biochemical
Conditions: 517 nm; for Inhibition (radical scavenging inhibition): 0.2 mL DPPH (0.75 mM), compound 3 μM in ethanol, 30 min incubation in the dark
Procedure: The antioxidant activity of 5,5′-naphthalene-1,5-diylbis(diazene-2,1-diyl)bis(2-hydroxybenzaldehyde) was investigated by 2,2-diphenyl-1-picrylhydrazyl (DPPH) in vitro tests that employ vitamin C as the positive control.
The antioxidant properties of the 5,5′-naphthalene-1,5-diylbis(diazene-2,1-diyl)bis(2-hydroxybenzaldehyde) were studied by adding 0.2 mL DPPH (0.75 mM)) to compound 5,5′-naphthalene-1,5-diylbis(diazene-2,1-diyl)bis(2-hydroxybenzaldehyde) (III) (3 μM) in ethanol. After 30 min of incubation in the dark, the absorbance was read against a blank at 517 nm. Ascorbic acid (vitamin C) was used as standard antioxidants (positive control). A blank sample was prepared by 0.2 ml of DPPH in 3 ml ethanol. A negative control sample was run using ethanol instead of the sample. The radical scavenging inhibition was calculated using the following equation: […]
The antioxidant activity for the synthesized compound is listed in Table 1, using Vitamin C as a reference.

| Compound | Inhibition (radical scavenging inhibition) [%] | antioxidant potential compared to vitamin C (vanishing DPPH radical colors) (DPPH in vitro test, vitamin C as positive control) |
| --- | --- | --- |
| O=Cc1cc(/N=N\c2cccc3c(/N=N/c4ccc(O)c(C=O)c4)cccc23)ccc1O [Product III, 5,5′-naphthalene-1,5-diylbis(diazene-2,1-diyl)bis(2-hydroxybenzaldehyde)] | 54 | high potential as an antioxidant |
| O=C1O[C@H]([C@@H](O)CO)C(O)=C1O [vit c, Ascorbic acid, reference compound] | 74 | – |
